Measurements reported in ChEMBL document CHEMBL1139073, “Inhibition of Src kinase activity by 7-ethynyl-4-phenylamino-3-quinolinecarbonitriles: identification of SKS-927” (Bioorg Med Chem Lett, 2007).
≈ marks a conversion by molar mass, not a printed value.

What was measured:
[1] = target: Proto-oncogene tyrosine-protein kinase Src (Homo sapiens, UniProt P12931); experiment: Inhibition of Src activity; type: functional
[2] = target: Proto-oncogene tyrosine-protein kinase Src (Rattus norvegicus, UniProt Q9WUD9); experiment: Inhibition of Src in rat fibroblasts
Sequence of Proto-oncogene tyrosine-protein kinase Src (Rattus norvegicus, UniProt Q9WUD9) (Q9WUD9 2-536 limits assumed): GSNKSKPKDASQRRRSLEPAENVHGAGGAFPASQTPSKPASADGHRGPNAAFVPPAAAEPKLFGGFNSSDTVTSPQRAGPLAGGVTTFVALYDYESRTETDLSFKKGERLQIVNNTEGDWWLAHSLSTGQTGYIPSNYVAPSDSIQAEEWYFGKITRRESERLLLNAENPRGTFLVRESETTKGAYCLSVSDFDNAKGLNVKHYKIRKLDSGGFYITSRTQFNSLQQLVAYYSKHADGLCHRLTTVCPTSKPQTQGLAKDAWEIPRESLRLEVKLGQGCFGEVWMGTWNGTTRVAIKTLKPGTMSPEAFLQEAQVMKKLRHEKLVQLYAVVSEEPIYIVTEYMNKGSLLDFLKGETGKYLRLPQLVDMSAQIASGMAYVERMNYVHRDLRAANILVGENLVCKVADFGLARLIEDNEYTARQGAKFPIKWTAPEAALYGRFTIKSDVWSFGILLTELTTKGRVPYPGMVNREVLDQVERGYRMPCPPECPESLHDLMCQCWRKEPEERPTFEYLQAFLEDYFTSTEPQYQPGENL

[3] = target: RAC-alpha serine/threonine-protein kinase (Homo sapiens, UniProt P31749); experiment: Inhibition of AKT
Sequence of RAC-alpha serine/threonine-protein kinase (P31749 whole entry): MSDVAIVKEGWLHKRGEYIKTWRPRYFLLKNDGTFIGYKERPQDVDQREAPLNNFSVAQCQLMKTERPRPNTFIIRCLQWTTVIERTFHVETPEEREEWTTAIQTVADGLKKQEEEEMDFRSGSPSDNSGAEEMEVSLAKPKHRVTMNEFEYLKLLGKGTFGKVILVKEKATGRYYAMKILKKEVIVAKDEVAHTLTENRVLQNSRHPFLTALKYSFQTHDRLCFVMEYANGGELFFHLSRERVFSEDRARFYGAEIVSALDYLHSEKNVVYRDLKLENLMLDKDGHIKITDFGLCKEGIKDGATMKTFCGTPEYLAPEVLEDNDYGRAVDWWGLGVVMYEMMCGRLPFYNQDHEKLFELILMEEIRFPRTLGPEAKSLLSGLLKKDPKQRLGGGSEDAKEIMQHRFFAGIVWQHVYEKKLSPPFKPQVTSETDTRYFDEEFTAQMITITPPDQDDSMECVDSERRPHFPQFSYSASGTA

[4] = target: Cyclin-dependent kinase 4 (Homo sapiens, UniProt P11802); experiment: Inhibition of CDK4
Sequence of Cyclin-dependent kinase 4 (P11802 whole entry): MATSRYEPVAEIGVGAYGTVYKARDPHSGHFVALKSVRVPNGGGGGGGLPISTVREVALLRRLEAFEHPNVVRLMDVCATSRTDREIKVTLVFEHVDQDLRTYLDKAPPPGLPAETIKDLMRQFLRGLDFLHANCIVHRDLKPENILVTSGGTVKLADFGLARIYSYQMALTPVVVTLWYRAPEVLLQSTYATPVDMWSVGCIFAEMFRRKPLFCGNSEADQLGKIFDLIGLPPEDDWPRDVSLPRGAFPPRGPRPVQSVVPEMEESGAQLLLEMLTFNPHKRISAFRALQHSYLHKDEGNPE

[5] = Inhibition of IGFR; set-up: species or system Homo sapiens
[6] = target: Vascular endothelial growth factor receptor 2 (Homo sapiens, UniProt P35968); experiment: Inhibition of KDR
Sequence of Vascular endothelial growth factor receptor 2 (P35968 whole entry): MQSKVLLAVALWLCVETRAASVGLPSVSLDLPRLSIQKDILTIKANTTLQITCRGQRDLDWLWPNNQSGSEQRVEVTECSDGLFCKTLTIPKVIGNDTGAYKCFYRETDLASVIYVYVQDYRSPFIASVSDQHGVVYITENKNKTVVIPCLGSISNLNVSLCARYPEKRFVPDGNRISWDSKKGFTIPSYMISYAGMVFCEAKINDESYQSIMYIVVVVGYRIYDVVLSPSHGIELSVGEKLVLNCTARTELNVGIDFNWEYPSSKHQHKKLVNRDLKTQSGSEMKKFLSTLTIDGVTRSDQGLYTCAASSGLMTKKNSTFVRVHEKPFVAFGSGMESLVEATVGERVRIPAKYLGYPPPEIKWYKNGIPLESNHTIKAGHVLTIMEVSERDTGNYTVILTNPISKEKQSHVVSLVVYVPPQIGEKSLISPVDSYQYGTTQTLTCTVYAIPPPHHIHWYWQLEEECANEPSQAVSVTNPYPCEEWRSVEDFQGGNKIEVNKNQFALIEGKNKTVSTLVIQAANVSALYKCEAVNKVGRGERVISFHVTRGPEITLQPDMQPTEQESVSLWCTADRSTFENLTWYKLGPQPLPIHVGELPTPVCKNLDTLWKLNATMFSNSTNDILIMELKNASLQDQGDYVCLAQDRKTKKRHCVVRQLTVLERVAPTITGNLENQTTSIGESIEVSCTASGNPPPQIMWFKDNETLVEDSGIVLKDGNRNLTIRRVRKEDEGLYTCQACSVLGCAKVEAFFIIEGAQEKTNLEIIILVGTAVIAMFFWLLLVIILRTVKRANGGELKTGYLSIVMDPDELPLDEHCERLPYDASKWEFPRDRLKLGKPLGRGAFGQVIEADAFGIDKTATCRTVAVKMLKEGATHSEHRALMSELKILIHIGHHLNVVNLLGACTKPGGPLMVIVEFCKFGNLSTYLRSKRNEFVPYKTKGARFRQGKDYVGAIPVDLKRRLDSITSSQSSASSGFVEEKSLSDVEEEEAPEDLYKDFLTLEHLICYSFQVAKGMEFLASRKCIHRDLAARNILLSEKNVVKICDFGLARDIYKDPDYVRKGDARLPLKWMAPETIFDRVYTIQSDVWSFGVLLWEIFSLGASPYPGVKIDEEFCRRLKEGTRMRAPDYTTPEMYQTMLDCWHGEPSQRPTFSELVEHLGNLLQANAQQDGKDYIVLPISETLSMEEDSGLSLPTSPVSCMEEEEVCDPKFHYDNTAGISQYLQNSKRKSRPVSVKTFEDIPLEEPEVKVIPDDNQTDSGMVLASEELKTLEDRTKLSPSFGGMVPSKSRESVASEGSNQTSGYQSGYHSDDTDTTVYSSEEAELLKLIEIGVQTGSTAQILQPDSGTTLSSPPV

[7] = Permeability across artificial membrane by PAMPA; type: ADME; settings: read-out: permeability
[8] = Solubility at neutral pH; type: physicochemical
[9] = Solubility at pH 4.5; type: physicochemical; settings: buffer
[10] = target: Epidermal growth factor receptor (Homo sapiens, UniProt P00533)
Sequence of Epidermal growth factor receptor (P00533 whole entry): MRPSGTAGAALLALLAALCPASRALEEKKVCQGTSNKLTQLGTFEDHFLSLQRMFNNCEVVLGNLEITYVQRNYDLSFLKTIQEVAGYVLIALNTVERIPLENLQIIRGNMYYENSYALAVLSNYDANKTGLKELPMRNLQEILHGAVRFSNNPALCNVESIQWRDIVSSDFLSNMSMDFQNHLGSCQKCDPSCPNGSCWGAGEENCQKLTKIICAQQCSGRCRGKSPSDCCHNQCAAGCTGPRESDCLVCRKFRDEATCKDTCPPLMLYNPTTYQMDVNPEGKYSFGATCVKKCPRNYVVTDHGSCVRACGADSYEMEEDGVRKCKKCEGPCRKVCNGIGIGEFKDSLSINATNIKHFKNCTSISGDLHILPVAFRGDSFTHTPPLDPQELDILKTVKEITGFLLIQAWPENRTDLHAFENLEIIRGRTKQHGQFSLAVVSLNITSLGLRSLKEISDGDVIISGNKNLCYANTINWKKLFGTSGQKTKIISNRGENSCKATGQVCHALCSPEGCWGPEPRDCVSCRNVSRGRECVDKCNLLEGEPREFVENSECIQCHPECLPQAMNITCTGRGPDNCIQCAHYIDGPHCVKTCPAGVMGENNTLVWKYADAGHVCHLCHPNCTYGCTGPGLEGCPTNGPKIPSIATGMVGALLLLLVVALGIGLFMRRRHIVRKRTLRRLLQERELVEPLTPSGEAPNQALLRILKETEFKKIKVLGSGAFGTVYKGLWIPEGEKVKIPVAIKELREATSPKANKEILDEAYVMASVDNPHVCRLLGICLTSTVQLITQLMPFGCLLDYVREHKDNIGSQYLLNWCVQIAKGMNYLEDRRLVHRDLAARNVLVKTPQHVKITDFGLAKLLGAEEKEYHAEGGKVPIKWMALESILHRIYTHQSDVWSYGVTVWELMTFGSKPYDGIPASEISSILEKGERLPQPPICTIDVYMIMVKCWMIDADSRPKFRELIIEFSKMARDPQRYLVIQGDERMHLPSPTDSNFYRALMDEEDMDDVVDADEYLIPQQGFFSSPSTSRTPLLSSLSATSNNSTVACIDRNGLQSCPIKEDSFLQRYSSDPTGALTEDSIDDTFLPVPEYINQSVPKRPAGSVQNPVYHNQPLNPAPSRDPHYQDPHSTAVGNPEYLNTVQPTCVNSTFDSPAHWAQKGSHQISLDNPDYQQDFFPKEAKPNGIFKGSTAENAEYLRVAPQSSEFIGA

Sequence of Proto-oncogene tyrosine-protein kinase Src (Homo sapiens, UniProt P12931) (P12931 2-536 limits assumed): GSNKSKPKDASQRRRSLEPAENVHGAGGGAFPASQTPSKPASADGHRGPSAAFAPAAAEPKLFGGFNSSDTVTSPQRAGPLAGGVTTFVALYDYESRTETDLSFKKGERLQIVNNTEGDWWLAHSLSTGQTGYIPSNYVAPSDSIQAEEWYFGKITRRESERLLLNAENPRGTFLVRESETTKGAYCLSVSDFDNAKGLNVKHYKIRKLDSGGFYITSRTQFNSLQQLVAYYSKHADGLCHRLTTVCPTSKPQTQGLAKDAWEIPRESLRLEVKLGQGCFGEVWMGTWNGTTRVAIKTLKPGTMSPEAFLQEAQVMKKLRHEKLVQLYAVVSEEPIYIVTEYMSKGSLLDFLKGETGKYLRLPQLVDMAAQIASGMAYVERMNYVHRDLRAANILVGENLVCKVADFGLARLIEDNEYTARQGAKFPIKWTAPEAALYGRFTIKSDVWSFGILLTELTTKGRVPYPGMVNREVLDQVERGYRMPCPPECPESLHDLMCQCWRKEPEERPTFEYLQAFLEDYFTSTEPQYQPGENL

Row | IC50 [1] | IC50 [2] | Structure (SMILES) | further results
1 | 5.4 nM | 520 nM | COc1cc(Nc2c(C#N)cnc3cc(C#CCCN4CCNCC4)c(OC)cc23)c(Cl)cc1Cl | –
2 | 4.9 nM | 250 nM | COc1cc(Nc2c(C#N)cnc3cc(C#CCCN(C)C)c(OC)cc23)c(Cl)cc1Cl | –
3 | 21 nM | 590 nM | COc1cc2c(Nc3cc(OC)c(OC)c(OC)c3)c(C#N)cnc2cc1C#CCCN1CCN(C)CC1 | –

Continued, compound first:

Row | Structure (SMILES) | IC50 [1] | IC50 [2] | further results
4 | COc1cc(Nc2c(C#N)cnc3cc(C#CCCN4CCN(C)CC4)c(OC)cc23)c(Cl)cc1Cl | 3.9 nM | 73 nM | IC50 [3]: > 5000 nM; IC50 [4]: > 5000 nM; IC50 [5]: > 5000 nM; IC50 [6]: > 5000 nM; Papp [7]: 6.8 ×10⁻⁶ cm/s; solubility [8]: 5 µg/mL (≈ 9.53 µM); solubility [9]: > 100 µg/mL; IC50 [10]: 720 nM
5 | COc1cc(Nc2c(C#N)cnc3ccc(C#CCCN4CCN(C)CC4)cc23)c(Cl)cc1Cl | 230 nM | 3900 nM | –
6 | COc1cc(Nc2c(C#N)cnc3cc(C#CCCN4CCOCC4)c(OC)cc23)c(Cl)cc1Cl | – | 190 nM | –
7 | COc1cc2c(Nc3ccc(Cl)cc3Cl)c(C#N)cnc2cc1C#CCCN1CCN(C)CC1 | 8.7 nM | 430 nM | –
8 | COc1cc(Nc2c(C#N)cnc3cc(C#CCN4CCN(C)CC4)c(OC)cc23)c(Cl)cc1Cl | 11 nM | 740 nM | –
9 | COc1cc(Nc2c(C#N)cnc3cc(C#CCCN4CCN(C)CC4)ccc23)cc(OC)c1OC | 220 nM | 2100 nM | –
10 | COc1cc(Nc2c(C#N)cnc3cc(C#CCCN4CCN(C)CC4)ccc23)c(Cl)cc1Cl | 28 nM | 1700 nM | –
11 | CCOc1cc2c(Nc3cc(OC)c(Cl)cc3Cl)c(C#N)cnc2cc1C#CCCN1CCN(C)CC1 | 4.1 nM | 130 nM | –
